# Data from patent publication US8962634B2, “4-amino-3-arylamino-6-arylpyrazolo[3,4-d) pyrimidine derivatives, methods for their preparation and their use as antiviral agents” (priority 2006, dated 2015).
# Where two headings read alike, the source gives them in different places.
# How the values were obtained:
# [1] = test system: coxsackievirus B3 Nancy (CVB3 Nancy); assay: Cytopathic effect (cpE)-inhibition test in HeLa cells, CVB3 Nancy; assay type: cell-based; details: 24 h after infection; for IC50: Enterovirus B, read-out: 50% inhibition concentration CVB3 Nancy
# Method: (§1) Cytopathic effect (cpE)-inhibition test with the international reference strain coxsackievirus B3 Nancy (CVB3 Nancy), human rhinovirus 2 and 8 (HRV2 and […]) in HeLa cells
# (§2) The replication of the viruses used in the test leads to the complete destruction of the host cells, a strong cytophatic effect (cpE). […] In the test, untreated and substance-treated compact cell lawns were infected with a virus dose that leads to a complete cpE in the untreated virus controls 24 h (CVB3 Nancy) or 72 h (HRV2 and HRV8) after the infection. At this point in time, the still adherent cells were fixed and dyed with a crystal-violet/formalin solution. The inhibition of the virus-induced cpE was quantified photometrically in a Dynatach plate reader after dye elution. The antiviral effect was calculated by comparing the optical densities of the substance-treated and untreated, virus-infected cells with the mean optical density of the cell controls that was assumed to be 100%. By means of the mean dose effect curves the 50% inhibition concentration was determined. Pleconaril was used as a control substance.
# HeLa cells = assay: Tolerance in the cell culture: cytotoxicity in HeLa cells (CC50); assay type: cell-based; details: 72 h incubation
# Method: (§3) 1×10^4 HeLa cells (DSMZ, ACC 57) were seeded per microtestplate cavity in 0.2 ml culture medium RPMI 1640. The microtiter plates were incubated without the test substance according to standard (at 37° C., 5% CO2 and ca. 95% relative humidity) for 48 hours under physiological conditions to produce subconfluent monolayers. Afterwards, dilution stages of the test substances were added to the monolayers and incubated under physiological conditions during a period of 72 h. At the end of the time of incubation, the extinction of all cavities of the microtiterplates were measured at 660 nm by means of a microplate reader (Sunrise, TECAN) after glutaraldehyd fixation and methylen-blue dye and the CC50 was determined by the analysis program “Magellan”. As the pre-incubation of the HeLa cells already leads to the formation of a subconfluent cell lawn, the cytolysis during the subsequent incubation with the test substance is decisive for the analysis. GMK cells were seemed in microtiter plates and preincubated at 5% CO2, 37° C. and with a humidity of 95% in the incubator during 48 h for producing a cell lawn (Schmidtke M et al.: J Virol Meth, 2001, 95(1-2), 133-143). Then, the medium was removed and the substances were deposited in different concentrations (100 μl/well/concentration, dilution factor 2) in the culture medium. 100 μl of the medium was used for each of the control value determinations (six untreated cell controls). 72 h after the substance application and incubation, the cells were dyed with crystal-violet/methanol. After the extraction of the dye, the optical density (OD) of the individual cavities were measured in a plate photometer of the Dynatech company (550/630 nm) and compared with the mean value of the cell controls. The mean value of the controls was assumed to be 100 %. By means of the mean dose effect curves the 50% cytotoxic concentrations (CC50) were measured by applying the linear interpolation method.
# [2] = test system: human rhinovirus 2 (HRV2); assay: Cytopathic effect (cpE)-inhibition test in HeLa cells, HRV2; assay type: cell-based; details: for IC50: Rhinovirus A, read-out: 50% inhibition concentration HRV2
# Method: as §1, §2
# [3] = test system: human rhinovirus 8 (HRV8); assay: Cytopathic effect (cpE)-inhibition test in HeLa cells, HRV8; assay type: cell-based; details: for IC50: Rhinovirus A, read-out: 50% inhibition concentration HRV8
# Method: as §1, §2
# coxsackievirus B2 (CVB2) = assay: Plaque reduction test (PRT) in HeLa cells, CVB2; assay type: cell-based
# Method: (§4) Plaque reduction test (PRT) with the substance of example 1 and coxsackievirus B1, B2, B4, B5, B6 (CVB1, CVB2, CVB4, CVB5, CVB6)
# (§5) For performing the test, 2-3-days-old compact HeLa cell lawns were infected in 12-well-tissue culture plates with 50-80 plaque-forming units (PFU) (Schmidtke M et al.: J Virol Meth, 2001, 95(1-2), 133-143). Two non-infected cavities of the plate were used as cell controls (CC). After a virus adsorption at 37° C. during one hour the virus-containing supernatant was soaked off. The infected cells were covered with a test medium containing 0.4% agar without (virus controls) or with substance in non-zytotoxic concentrations (dilution factor 2, double determination per concentration) and incubated at 37° C. during 48 h. After the fixation and dyeing of the plates with crystal-violet formalin, the agar was removed and rinsed in flowing water. The number of the virus-induced plaques was counted via a light box and afterwards the proportional substance-induced plaque reduction was calculated. Three identical test approaches were performed and the concentration that leads to a 50% plaque reduction (IC50) was measured by using the calculated mean dose-effect-curve.
# coxsackievirus B1 (CVB1) = assay: Plaque reduction test (PRT) in HeLa cells, CVB1; assay type: cell-based
# Method: as §4, §5
# [4] = Tolerance in the cell culture: cytotoxicity in HeLa cells (CC50); assay type: cell-based; details: human, repeated per virus line of the plaque reduction table, read-out: 50% zytotoxic concentration in HeLa cells (CC50)
# Method: as §3
# coxsackievirus B4 (CVB4) = assay: Plaque reduction test (PRT) in HeLa cells, CVB4; assay type: cell-based
# Method: as §4, §5
# coxsackievirus B6 (CVB6) = assay: Plaque reduction test (PRT) in HeLa cells, CVB6; assay type: cell-based
# Method: as §4, §5
# GMK cells = assay: Tolerance in the cell culture: cytotoxicity in GMK cells (CC50); assay type: cell-based; details: 72 h incubation
# Method: as §3
# coxsackievirus B5 (CVB5) = assay: Plaque reduction test (PRT) in HeLa cells, CVB5; assay type: cell-based
# Method: as §4, §5
# mice = assay: Acute toxicity in the mouse, single oral administration; assay type: in vivo; details: for Number of dead/surviving mice: 5 mice; for substance concentration up to which all animals survived: administered orally once, mice; for tolerability after administering orally once: mouse, in vivo, po; for influence on general state of health, rectal temperature, body weight: up to 3.000 mg/kg orally once, three days observation
# Method: The acute toxicity of the substances of the examples 2 and 4 were determined in mice which were 4-5 weeks old (without strain designation). 1-2 drops TWIN-80 were added to a 1% aqueous carboxymethyl cellulose solution and this mixture was used to produce a substance suspension. 1500, 2000, 2500, 3000, 4000 or 5000 mg/kg of the substances of the examples 2 and 4 were administered orally to 5 mice, each amount once. On the following three days, the general state of health of the mice, the changes in their weight, their rectal temperatures and their survival rate were determined.
# [5] = HRV2, cpE inhibition, HeLa cells, 72 h after infection
# [6] = HRV8, cpE inhibition, HeLa cells, 72 h after infection
# [7] = cpE inhibition, HeLa cells, 72 h after infection
smiles,measurement,setting,value
"Cc1cccc(Nc2n[nH]c3nc(-c4ccccc4)nc(N)c23)c1 [Example 3, 4-amino-3-(3-methylphenyl)amino-6-phenylpyrazolo[3,4-d]pyrimidine]",IC50,[1],0.02 µg/mL
same,50% cytotoxic concentration in HeLa cells,HeLa cells,27.7 µg/mL
same,IC50,[2]; [5],1.1 µg/mL
same,IC50,[3]; [6],1 µg/mL
same,melting point,,246 to 248 °C
"Cc1cc(CCCOc2c(C)cc(-c3noc(C(F)(F)F)n3)cc2C)on1 [Pleconaril, reference compound]",50% inhibition concentration CVB3 Nancy,[1],ineffective
same,IC50,"[2]; HRV2, HeLa, 72 h",0.01 µg/mL
same,IC50,"[3]; HRV8, HeLa, 72 h",1.3 µg/mL
"Nc1nc(-c2ccccc2)nc2[nH]nc(Nc3ccccc3)c12 [Example 1, 4-amino-3-phenylamino-6-phenylpyrazolo[3,4-d]pyrimidine]",Selection index (SI) = CC50:IC50,coxsackievirus B2 (CVB2); CVB2,132
same,IC50,"coxsackievirus B2 (CVB2); Enterovirus B, HeLa, plaque reduction, CVB2, 48 h, read-out: 50% inhibition concentration in HeLa cells (IC50)",0.3 µg/mL
same,Selection index (SI) = CC50:IC50,coxsackievirus B1 (CVB1); CVB1,3.1
same,IC50,"coxsackievirus B1 (CVB1); Enterovirus B, HeLa, plaque reduction, CVB1, 48 h, read-out: 50% inhibition concentration in HeLa cells (IC50)",12.7 µg/mL
same,IC50,[1],0.002 µg/mL
same,CC50 at 72 h,[4],39.6 µg/mL
same,50% cytotoxic concentration in HeLa cells,HeLa cells,39.6 µg/mL
same,Selection index (SI) = CC50:IC50,coxsackievirus B4 (CVB4); CVB4,5.6
same,IC50,"coxsackievirus B4 (CVB4); Enterovirus B, HeLa, plaque reduction, CVB4, 48 h, read-out: 50% inhibition concentration in HeLa cells (IC50)",7.1 µg/mL
same,50% inhibition concentration HRV2,[2]; [7],ineffective
same,Selection index (SI) = CC50:IC50,coxsackievirus B6 (CVB6); CVB6,15.3
same,IC50,"coxsackievirus B6 (CVB6); Enterovirus B, HeLa, plaque reduction, CVB6, 48 h, read-out: 50% inhibition concentration in HeLa cells (IC50)",2.6 µg/mL
same,50% inhibition concentration HRV8,[3]; [7],ineffective
same,50% cytotoxic concentration in GMK cells,GMK cells,>50 µg/mL
same,Selection index (SI) = CC50:IC50,coxsackievirus B5 (CVB5); CVB5,14.1
same,IC50,"coxsackievirus B5 (CVB5); Enterovirus B, HeLa, plaque reduction, CVB5, 48 h, read-out: 50% inhibition concentration in HeLa cells (IC50)",2.8 µg/mL
"Nc1nc(-c2ccccc2)nc2[nH]nc(Nc3ccc(F)cc3)c12 [Example 6, 4-amino-3-(4-fluorophenyl)amino-6-phenylpyrazolo[3,4-d]pyrimidine]",IC50,[1],0.03 µg/mL
same,50% cytotoxic concentration in HeLa cells,HeLa cells,44.3 µg/mL
same,IC50,[2]; [5],0.9 µg/mL
same,IC50,[3]; [6],2 µg/mL
same,50% cytotoxic concentration in GMK cells,GMK cells,>50 µg/mL
same,melting point,,259 to 263 °C
"Nc1nc(-c2ccccc2)nc2[nH]nc(Nc3ccc(Br)cc3)c12 [Example 5, 4-amino-3-(4-bromophenyl)amino-6-phenylpyrazolo[3,4-d]pyrimidine]",IC50,[1],0.04 µg/mL
same,50% cytotoxic concentration in HeLa cells,HeLa cells,8.5 µg/mL
same,IC50,[2]; [5],0.7 µg/mL
same,IC50,[3]; [6],1 µg/mL
same,50% cytotoxic concentration in GMK cells,GMK cells,42.9 µg/mL
same,melting point,,272 to 274 °C
"Cc1ccc(Nc2n[nH]c3nc(-c4ccccc4)nc(N)c23)cc1 [Example 4, 4-amino-3-(4-methylphenyl)amino-6-phenylpyrazolo[3,4-d]pyrimidine]",IC50,[1],0.08 µg/mL
same,Number of dead/surviving mice,mice; 1500 mg/kg orally once,0/5
same,Number of dead/surviving mice,mice; 2000 mg/kg orally once,0/5
same,Number of dead/surviving mice,mice; 2500 mg/kg orally once,0/5
same,Number of dead/surviving mice,mice; 3000 mg/kg orally once,0/5
same,Number of dead/surviving mice,mice; 4000 mg/kg orally once,4/5
same,Number of dead/surviving mice,mice; 5000 mg/kg orally once,5/5
same,substance concentration up to which all animals survived,mice,3.000 mg/kg
same,tolerability after administering orally once,mice,very tolerable
same,"influence on general state of health, rectal temperature, body weight",mice,Neither the general state of health nor the rectal temperature nor the body weight was influenced
same,50% cytotoxic concentration in HeLa cells,HeLa cells,>50 µg/mL
same,IC50,[2]; [5],1.8 µg/mL
same,IC50,[3]; [6],2.2 µg/mL
same,50% cytotoxic concentration in GMK cells,GMK cells,>50 µg/mL
"Nc1nc(-c2ccccc2)nc2[nH]nc(Nc3cccc(F)c3)c12 [Example 2, 4-amino-3-(3-fluorophenyl)amino-6-phenylpyrazolo[3,4-d]pyrimidine]",IC50,[1],0.001 µg/mL
same,Number of dead/surviving mice,mice; 1500 mg/kg orally once,0/5
same,Number of dead/surviving mice,mice; 2000 mg/kg orally once,0/5
same,Number of dead/surviving mice,mice; 2500 mg/kg orally once,0/5
same,Number of dead/surviving mice,mice; 3000 mg/kg orally once,0/5
same,Number of dead/surviving mice,mice; 4000 mg/kg orally once,3/5
same,Number of dead/surviving mice,mice; 5000 mg/kg orally once,5/5
same,substance concentration up to which all animals survived,mice,3.000 mg/kg
same,tolerability after administering orally once,mice,very tolerable
same,"influence on general state of health, rectal temperature, body weight",mice,Neither the general state of health nor the rectal temperature nor the body weight was influenced
same,50% cytotoxic concentration in HeLa cells,HeLa cells,45.7 µg/mL
same,IC50,[2]; [5],4.1 µg/mL
same,IC50,[3]; [6],4.6 µg/mL
same,50% cytotoxic concentration in GMK cells,GMK cells,>50 µg/mL
